Data published in the METLIN SMRT retention time set (Domingo-Almenara et al. 2019).

Assay: gradient 5% acetonitrile 3 min, to 50% in 2 min, to 85% in 15 min, held 3 min, 100 µL/min
Details: column: Zorbax Extend-C18 2.1 x 50 mm; eluents: water / acetonitrile, 0.1% formic acid
Outline: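 Mixtures of ~100 pure standards were chromatographed on a Zorbax Extend-C18 column (2.1 × 50 mm, 1.8 μm) at 100 μL/min using water and acetonitrile, each with 0.1% formic acid. Detection used a quadrupole time-of-flight mass spectrometer in positive and negative ionization mode, and data collection spanned 3 months. Retention time was obtained from adduct peaks picked computationally and each checked manually.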

Row | RP-LC retention time [s] | SMILES
1 | 551 | O=C(O)c1cc(-c2cccs2)[nH]c(=O)n1
2 | 1150 | Cn1cc(-c2nc(C(=O)Nc3cc(F)ccc3F)cs2)c2cccnc21
3 | 575 | COCCCNC(=O)CN1CCN(c2cc(C(=O)O)c3cc(NC(=O)C4CCCC4)ccc3n2)CC1
4 | 892 | CCc1ccc2c(c1)c(=O)c(C(=O)c1ccccc1)cn2CC(=O)Nc1cccc(Cl)c1
5 | 661 | Cc1nn(-c2ccc(N3CCOCC3)nn2)c(C)c1CCC(=O)NCCc1ccco1
6 | 1070 | CCOc1ccc(-c2csc(NC(=O)CS(=O)(=O)c3ccc(Cl)cc3)n2)cc1
7 | 866 | COc1cc(=O)n(-c2ccccc2)nc1C(=O)N1c2ccc(F)cc2CCC1C (centres undefined)
8 | 683 | CN(CC1CCOC1)C(=O)c1ccc(F)cc1F (centres undefined)
9 | 564 | Cc1sc2ccn(C)c(=O)c2c1C(=O)N1CCN(c2ccccn2)CC1
10 | 942 | CCC(C)Nc1nc(N(C)C)nc(-n2cnc(SC)n2)n1 (centres undefined)
11 | 723 | CC(C)c1ccc(-c2ccnc3c(C(=O)NCc4cccnc4)cnn23)cc1
12 | 818 | O=C(NCc1ccccc1F)C1=C2CCCN2c2ccccc2S1(=O)=O
13 | 1020 | CC(Oc1ccc(C(C)(C)C)cc1)C(=O)Nc1ccnn1Cc1ccco1 (centres undefined)
14 | 619 | O=C1CCCCC(CNC(=O)c2ccsc2)N1 (centres undefined)
15 | 1260 | Cc1ccc(-c2noc(-c3cccc(S(=O)(=O)N(C)Cc4ccco4)c3)n2)cc1
16 | 734 | COC(=O)c1ncn2c1C(=O)N(c1cccc(C)c1)C(C)(C(=O)NCc1ccc(C)cc1)C2 (centres undefined)
17 | 577 | CCOCCCNC(=O)NCCn1cnc2cc(C(=O)N3CCCC3)ccc21
18 | 1220 | COc1ccc(OC)c(CNS(=O)(=O)c2cccc(-c3nc(-c4ccc(C)cc4)no3)c2)c1
19 | 883 | O=C(c1ccccc1F)N1CCc2nc(-c3ccccc3)ncc2C1
20 | 746 | COCCN1C(=O)CCc2cc(NC(=O)c3ccccc3Br)ccc21
21 | 741 | CCCc1noc(-c2ccc(-n3cnc(C(=O)NC4CCCCC4)c3)nc2)n1
22 | 830 | COc1ccc(OC)c(NC(=O)C2CCCN2S(=O)(=O)c2cc3c(cc2C)NC(=O)C(C)O3)c1 (centres undefined)

Row | RP-LC retention time [s] | SMILES
23 | 720 | COCCC(=O)N1CCCN(C2=NS(=O)(=O)C(c3ccc(C)cc3)=C2C)CC1
24 | 858 | COc1cccc(NC(=O)Cn2nc3c(Oc4cccc(Cl)c4)nccn3c2=O)c1
25 | 687 | Cc1nc(-c2noc(-c3cccnc3)n2)cn1CC(=O)Nc1ccc(F)cc1
26 | 607 | CCCn1c(C)cnc1C1CN(S(=O)(=O)c2cc(Cl)ccc2Cl)C1
27 | 753 | COc1ccc(CNC(=O)C2CCCN(c3nnc4ccc(Cl)cn34)C2)c(OC)c1 (centres undefined)
28 | 906 | COc1ccc(-c2ccnc3nc(Cc4ccc(F)cc4)nn23)c(F)c1
29 | 700 | Cc1oc(-c2[nH]ncc2C(=O)N2CCCC2)cc1S(=O)(=O)NCc1cc(F)ccc1F
30 | 1090 | O=C(O)c1ccc(CCCc2ccc(OCCc3ccc(F)cc3)cc2)o1
31 | 630 | Cc1ccc(NC(=O)Nc2c(-c3ccncc3)nc3ccccn23)cc1F
32 | 952 | CCc1nc(-c2csc(S(=O)(=O)N3CCC(C(=O)Nc4ccccc4)CC3)c2)no1
33 | 593 | Cc1ccc(NC(=O)Cn2nnc(C(=O)NCc3cccs3)c2N)cc1
34 | 1090 | Cc1ccccc1NC(=O)c1cc(C(C)C)n2nccc2n1
35 | 969 | CCC1Oc2ccc(S(=O)(=O)N3CCC(C(=O)Nc4ccc(F)c(Cl)c4)CC3)cc2NC1=O (centres undefined)
36 | 1180 | COc1ccccc1C(=O)Nc1cnc(-c2cccc(Cl)c2)nc1
37 | 761 | Cc1ccc(C(C)NC(=O)c2ccc(CN3CCN(C(C)C)C(=O)C3=O)cc2)c(C)c1 (centres undefined)
38 | 1040 | O=C(NC1CCCC1)C1CCCCN1S(=O)(=O)c1ccc(Br)cc1 (centres undefined)
39 | 1080 | CCOc1ccc(-c2noc(Cn3c(=O)n(C(C)C)c(=O)c4ccccc43)n2)cc1OC
40 | 858 | CS(=O)(=O)c1nc2ccc(NS(=O)(=O)c3cc(F)cc(F)c3)cc2s1
41 | 824 | CCC(c1cccs1)N1C(=O)[C@H]2CN(S(=O)(=O)c3cccnc3)C[C@H]2C1=O (some centres undefined)
42 | 610 | CCn1nc(C)c(CCNC(=O)c2cc3c(=O)n(Cc4ccco4)ccc3nc2C)c1C
43 | 695 | COc1cc(OC)c(NC(=O)Cn2ncc3c(c2=O)N(C)C(=O)CS3)cc1Cl
44 | 740 | O=C(CCn1cnc2cc(-c3noc(-c4ccc(F)c(F)c4)n3)ccc21)N1CCOCC1

Row | RP-LC retention time [s] | SMILES
45 | 936 | O=C(NC1CCCCCCC1)C1CCN(C(=O)c2ncn3c2COC(c2ccc(Cl)cc2)C3)CC1 (centres undefined)
46 | 736 | CCOC(=O)CNC(=O)CSc1nnc(NC(=O)c2nc3ccccc3s2)s1
47 | 1210 | Cc1c(Cl)cccc1S(=O)(=O)N1CCc2nc(-c3ccccc3)ncc2C1
48 | 649 | CCCN(Cc1ccccc1)Cc1cc(=O)n2cc(Cl)ccc2n1
49 | 944 | O=C(CSc1ccc(-c2cccc([N+](=O)[O-])c2)nn1)c1ccc(F)cc1
50 | 911 | c1ccc(-c2nnc3oc(-c4cccs4)nn23)cc1
51 | 677 | Cc1noc(/C=C/c2ccc(S(=O)(=O)NCC3CCCO3)s2)c1NC(=O)C1CC1 (centres undefined)
52 | 1240 | COC(=O)c1c(C)c(C(=O)C(C)N(CC2CCCCC2)C(=O)c2ccccc2Cl)c(C)n1C (centres undefined)
53 | 1120 | O=C(Cn1nc2c(SC3CCCCC3)nccn2c1=O)Nc1ccc(Br)cc1F
54 | 622 | NS(=O)(=O)c1ccc(CCNC(=O)c2csc(-c3cnccn3)n2)cc1
55 | 686 | Cn1ncc2c(N3CCOCC3)nc(C(=O)NCc3cccs3)nc21
56 | 817 | CCC(C)C(NC(=O)c1ccc(F)c(Cl)c1)C(=O)Nc1nc2ccccc2[nH]1 (centres undefined)
57 | 895 | O=C(NCc1ccc2c(c1)OCO2)C1CCCN(c2nccn3nc(-c4ccccc4Cl)cc23)C1 (centres undefined)
58 | 964 | CCOC(=O)C1CCN(c2c(S(=O)(=O)c3ccccc3)cnc3ccc(C)cc23)CC1
59 | 893 | CCCc1nc(-c2c(C)cc(C)nc2NC(=O)c2ccc(C)cc2)no1
60 | 734 | Cc1ccc(NC(=O)Cn2cnc3nc4c(cc3c2=O)CCCC4)c(C)c1
61 | 1170 | CC(C)(C)c1cc(C(=O)Nc2cccc(C#N)c2)nc2ccnn12
62 | 820 | CN(CC1(C)CCOCC1)S(=O)(=O)c1ccccc1C(F)(F)F
63 | 948 | COc1cccc(-c2cc(=O)c3ccccc3o2)c1N
64 | 709 | COCCC1CCN(C(=O)c2n[nH]c3ccccc23)CC1
65 | 903 | O=C(Nc1ccc(C2(C(=O)NCc3ccc(F)c(Cl)c3)CCC2)cc1)C1CC1
66 | 559 | Cc1cc(C)c2c(N(C)C)nc(C(=O)NC(C)c3ccccn3)nc2n1 (centres undefined)

Row | RP-LC retention time [s] | SMILES
67 | 914 | CC1=NS(=O)(=O)N(C)C=C1C(=O)OCc1noc(-c2ccccc2F)n1
68 | 913 | Cn1ncc2c(N3CCSCC3)nc(C(=O)NCCc3ccc(Cl)cc3)nc21
69 | 587 | COCc1ncc(C)n1CCNC(=O)NC1CCCCC1
70 | 1130 | COc1c(Sc2ccc([N+](=O)[O-])cc2)c(C)nn1-c1ccccc1
71 | 618 | CCNC(=O)c1ccc2nc(C)c(C)nc2c1
72 | 769 | O=C(NCC1(c2ccccc2)CCOCC1)c1c(F)cccc1Cl
73 | 687 | COc1ccc(-c2c(C)noc2NC(C)=O)cc1S(=O)(=O)Nc1cc(OC)c(OC)c(OC)c1
74 | 734 | COC(=O)CNC(=O)N1CCCC1c1cccc(C)c1 (centres undefined)
75 | 802 | Cc1ccccc1Nc1c(-c2cccc(Cl)c2)nc2cccc(C)n12
76 | 884 | CCOC(=O)c1c(C)nn(Cc2cccc(Cl)c2)c1N
77 | 841 | CC(=O)c1ccc(N(C(C)=O)S(=O)(=O)c2ccc(Cl)cc2)cc1
78 | 611 | O=C(Nc1ccc(F)cc1F)C1(CCO)CCN(c2ncccn2)C1 (centres undefined)
79 | 992 | CN(C)c1ccc(/C=C2\SC(=O)N(CC(=O)Nc3ccccc3C(F)(F)F)C2=O)cc1
80 | 927 | CCc1ccc(NC(=O)C2CCN(S(=O)(=O)c3ccc4c(c3)NC(=O)C(C)O4)CC2)cc1 (centres undefined)
81 | 732 | COC1CCOC2(CCN(C(=O)c3sccc3C)CC2)C1 (centres undefined)
82 | 910 | Cc1ccc(C(=O)Nc2cnc(N3CCCCCC3)nc2)s1
83 | 690 | Cc1cc2[nH]c(=O)[nH]c2cc1S(=O)(=O)Nc1cccc(Cl)c1
84 | 873 | COc1cc(-c2nnc(-c3cccc(S(=O)(=O)N(C)C)c3)o2)cc(OC)c1OC
85 | 615 | CCOc1cc2c(cc1OCC)C1C(C(=O)NCCN3CCOCC3)c3ccccc3C(=O)N1CC2 (centres undefined)
86 | 952 | O=C(Nc1cnc(N2CCCCC2)nc1)c1cc(F)ccc1F
87 | 732 | CCn1cnc2cc(-c3noc(-c4cc(OC)c(OC)c(OC)c4)n3)ccc21
88 | 667 | CCCNC(=O)C1CCN(c2ccc(SCC(=O)NCc3ccc(F)cc3)nn2)CC1

Row | SMILES | RP-LC retention time [s]
89 | Cc1nn(C)c(C)c1S(=O)(=O)N1[C@H]2CC[C@@H]1c1cnc(-c3ccccc3)nc1C2 | 865
